By EC50 is commonly meant the concentration giving half of the maximal effect. Usually melting point stands for the temperature, or range, at which the solid turns liquid.

From patent US8193369B2, “Benzimidazole cannabinoid agonists” (Janssen Pharmaceutica NV, priority 2007, dated 2012) come the findings set out here.

Series [1] concerns the target T1, human CB2 (hCB2) receptor (Homo sapiens, UniProt P34972).
T1 construct: expressed in transfected cells; host or cells: CHO-K1
Description: Inhibition of forskolin-activated cAMP production upon activation of human CB2 receptor (HTRF). In kind it is cell-based. To be noted: CHO-K1 cells stably transfected with hCB2; 15 μM forskolin; pEC50=-log(EC50); relative to WIN55212-2. As to the method: D. Pharmacological Examples D.1 Inhibition of cAMP in Response to Activation of the Human CB2 Receptors
Functional activity of the test compounds was assessed by measuring their potency to inhibit forskolin-activated cAMP production upon activation of human CB2 (hCB2) receptor through homogenous time resolved fluorescence (HTRF) assays.
CHO-K1 cells stably transfected with hCB2 were grown up to 80-90% confluence in T175 Falcon flasks in DMEM/NUT MIX F-12 culture medium complemented with 2% Solution A (5.10^6 IU/l penicillin G, 5 g/l streptomycin sulphate, 5.5 g/l pyruvate, 14.6 g/l L-glutamine, 1M NaOH) and 10% foetal calf serum. Before the experiments, medium was removed, cells were washed with PBS/EDTA (140 mM NaCl, 1 mM Na2-EDTA, 8 mM Na2HPO4.2H2O, 8.5 mM KH2PO4, 2.7 mM KCl, 21 mM glucose), resuspended in stimulation buffer (HBSS 1×, IBMX 1 mM, Hepes 5 mM, MgCl2 10 mM, BSA 0.1%, pH 7.4). Cells were diluted to a concentration of 10^6 cells/ml for hCB2 experiments. Assays were performed using the cAMP Dynamic HTRF kit (CIS bio international, France) according to the recommendations of the manufacturer.
For CB2, each well of a 384 flat bottom black polystyrene assay plate (Costar) was filled with 10 μl stimulation buffer containing 15 μM forskolin and either test compound (in 3% DMSO), 3% DMSO or 10 μM Win55212-2 (in 3% DMSO). Then, 20 μl of the diluted hCB2-CHO-K1 cells was added (20,000 cells/well). After 30 minutes incubation in dark at room temperature, 10 μl cAMP-XL665 and 10 μl anti-cAMP cryptate (both at a final dilution of 1/100) was added to the cells.
After equilibration of the reaction mixtures for 1 to 24 hours in dark at room temperature, fluorescence was measured at 665 nm and 620 nm using a Discovery microplate fluorescence counter (Perkin Elmer), and the signal ratio of 665 nm/620 nm was calculated. The signal ratios of the test compounds were expressed relative to the signal ratios of the DMSO control (maximal signal ratio, no inhibition of cAMP) and WIN55212-2 for hCB2, respectively (minimal signal ratio, maximal inhibition of cAMP). From the dose response curves generated for each test compound, the dose at which 50% of the maximal inhibition of cAMP level is observed (EC50, expressed in the Table as pEC50=−log (EC50) values) and the level of inhibition reached with 10 μM of the test compound compared to WIN55212-2 (for hCB2) was calculated.
In general terms: Changes in cAMP serve as a functional read-out for many G protein-coupled receptors.

Series [2] can be described thus: CB1 related side-effects: body temperature lowering, LAD. The format is in vivo. The procedure:
CB1 related undesired side-effects such as lowering of body temperature, flat body posture, and mydriasis were measured for a number of compounds of the present invention and a number of compounds covered by reference WO-2006/048754.

T1 sequence (P34972 whole entry): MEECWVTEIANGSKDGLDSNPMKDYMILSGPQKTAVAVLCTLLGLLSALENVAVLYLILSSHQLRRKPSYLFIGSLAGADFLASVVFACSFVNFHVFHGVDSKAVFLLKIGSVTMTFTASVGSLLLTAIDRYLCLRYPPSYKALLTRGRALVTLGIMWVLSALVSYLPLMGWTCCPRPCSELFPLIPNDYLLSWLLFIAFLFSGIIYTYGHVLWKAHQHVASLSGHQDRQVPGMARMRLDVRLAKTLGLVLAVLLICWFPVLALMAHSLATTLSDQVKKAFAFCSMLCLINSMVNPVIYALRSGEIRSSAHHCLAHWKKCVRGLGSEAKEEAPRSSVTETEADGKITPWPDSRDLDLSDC

As for `CC(=O)N1CCC(Cn2c(C(C)(C)C)nc3cc(S(=O)(=O)CC4CCC4)ccc32)CC1` [compound 43], the melting point came to 155 °C. In addition, the half-maximal effective concentration (EC50) in series [1] is 8.71 nM. Regarding `CCS(=O)(=O)c1ccc2c(c1)nc(C(C)(C)C)n2CC1CCS(=O)(=O)CC1` [compound 29], the melting point came out at 194 °C. The compound also showed an EC50 in series [1] of 27.5 nM.

For `COCC(=O)N1CCC(Cn2c(C(C)(C)C)nc3cc(S(=O)(=O)CCCC(F)(F)F)ccc32)CC1` [compound 9], the melting point was over 100 °C. For the same compound, in series [1], the “CB2 pEC50” value is given as 5.80. Regarding `CC(=O)N1CCC(Cn2c(C(C)(C)C)nc3cc(S(=O)(=O)c4nccs4)ccc32)CC1` [compound 40], the melting point amounted to 191 °C. Further, in series [1], the EC50 was 5.89 nM. The matching figures for `CC(=O)N1CCC(Cn2c(C(C)(C)C)nc3cc(S(=O)(=O)Cc4ccc(F)cc4)ccc32)CC1` [compound 25]: over 100 °C and 12.3 nM. For the compound `CC(C)(C)c1nc2cc(S(=O)(=O)CCCC(F)(F)F)ccc2n1CC1CCN(C(=O)C(F)(F)F)CC1.Cl` [compound 8], the melting point was over 100 °C. For the same compound, the “CB2 pEC50” value in series [1] was 7.64. The matching figures for `CC(C)(C)c1nc2cc(S(=O)(=O)CCCC(F)(F)F)ccc2n1CC1CCN(C=O)CC1` [compound 5]: over 100 °C and 8.62. Regarding `CCS(=O)(=O)c1ccc2c(c1)nc(C(C)(C)C)n2CC1CCN(C=O)CC1` [Co. No. 28], in series [2], the “LAD (Lowest Acceptable Dose) at which lowering of body temperature was observed in more than half of the treated animals” value is over 40 mg/kg. Regarding `CC(C)(C)c1nc2cc(S(=O)(=O)CC3CC3)ccc2n1CC1CCN(C=O)CC1` [compound 36], the melting point came to 186 °C. Further, the “CB2 pEC50” value in series [1] is 8.66.

As for `CCCC(CCC)S(=O)(=O)c1ccc2c(c1)nc(C(C)(C)C)n2CC1CCN(C(C)=O)CC1` [compound 67], the melting point came to 132 °C. In series [1], this compound had a 50% effective concentration (EC50) of 2.75 nM.

Consider `CCC(=O)N1CCC(Cn2c(C(C)(C)C)nc3cc(S(=O)(=O)CCCC(F)(F)F)ccc32)CC1.Cl` [compound 6], for which the melting point is over 100 °C. In series [1], the “CB2 pEC50” value is 7.72. The compound `CC(=O)N1CCC(Cn2c(C(C)(C)C)nc3cc(S(=O)(=O)c4ccc(C(F)(F)F)cc4)ccc32)CC1` [compound 88] yielded a melting point of 189 °C. The EC50 in series [1] was 0.537 nM.

With `CC(=O)N1CCC(Cn2c(C(C)(C)C)nc3cc(S(=O)(=O)c4cccc(Cl)c4)ccc32)CC1` [compound 90], the melting point was found to be 192 °C. In series [1], this compound showed an EC50 of 0.741 nM.

With `CC(=O)N1CCC(Cn2c(C(C)(C)C)nc3cc(S(=O)(=O)CC4CC4)ccc32)CC1` [compound 24], the melting point was 150 °C. Moreover, the midpoint of the response in series [1], the EC50, lay at 9.33 nM. The corresponding values for `CC(C)(C)c1nc2cc(S(=O)(=O)CCCO)ccc2n1CC1CCN(C=O)CC1` [compound 26] are over 100 °C and 8.91 nM. Turning to `CCS(=O)(=O)c1ccc2c(c1)nc(C(C)(C)C)n2CC1CCN(C=O)CC1` [compound 28], the melting point lay in the range of 188 to 190 °C. In series [1], this compound had an EC50 of 23.4 nM.

Compound `CCS(=O)(=O)c1ccc2c(c1)nc(CC(C)(C)C)n2CC1CCN(C=O)CC1` [compound 48] gave a melting point of 166 to 168 °C. Further, the response in series [1] was half-maximal at 69.2 nM (EC50). The corresponding values for `CC(C)(C)c1nc2cc(S(=O)(=O)c3nccs3)ccc2n1CC1CCN(C=O)CC1` [compound 49] are 190 °C and 7.41 nM. The matching figures for `CCS(=O)(=O)c1ccc2c(c1)nc(CC(C)(C)C)n2CC1CCN(C(C)=O)CC1` [compound 46]: 152 to 155 °C and 53.7 nM.

`CC(C)(C)c1nc2cc(S(=O)(=O)CC3CC3)ccc2n1CC1CCS(=O)(=O)CC1` [compound 31] gave a melting point of 234 °C. The compound also showed an EC50 in series [1] of 8.51 nM. Take `COC(=O)N1CCC(Cn2c(C(C)(C)C)nc3cc(S(=O)(=O)CCCC(F)(F)F)ccc32)CC1.Cl` [compound 7]: the melting point was over 100 °C. For the same compound, in series [1], the “CB2 pEC50” value came to 7.77.

As for `CC(=O)N1CCC(Cn2c(C(C)(C)C)nc3cc(S(=O)(=O)c4cccs4)ccc32)CC1` [compound 68], the melting point was 187 °C. This compound also had an EC50 in series [1] of 2.95 nM. Compound `CC(=O)N1CCC(Cn2c(C(C)(C)C)nc3cc(S(=O)(=O)c4ccccn4)ccc32)CC1` [compound 53] registered a melting point of 205 °C. Also, in series [1], the EC50 was 2.95 nM. The matching figures for `COc1cccc(S(=O)(=O)c2ccc3c(c2)nc(C(C)(C)C)n3CC2CCN(C(C)=O)CC2)c1` [compound 82]: 164 °C and 2.19 nM. The corresponding values for `CC(=O)N1CCC(Cn2c(C(C)(C)C)nc3cc(S(=O)(=O)c4ccc(F)cc4)ccc32)CC1` [compound 59] are 186 °C and 2.75 nM.

Take `CC(=O)N1CCC(Cn2c(C(C)(C)C)nc3cc(Sc4ccc(C(F)(F)F)cc4)ccc32)CC1` [compound 87]: in series [1], the concentration giving a half-maximal response (EC50) was about 10 nM. In turn, `CC(=O)N1CCC(Cn2c(C(C)(C)C)nc3cc(Sc4ccccc4C#N)ccc32)CC1` [compound 93] gave an EC50 in series [1] of about 0.24 nM. Still for that read-out and setting: then `CC(=O)N1CCC(Cn2c(C(C)(C)C)nc3cc(S(=O)(=O)C(C)C#N)ccc32)CC1` (centres unmarked) [compound 39], with 7.08 nM; and `COc1cccc(S(=O)(=O)c2ccc3c(c2)nc(C(C)(C)C)n3CC2CCN(C(C)=O)CC2)c1OC` [compound 108], with about 13.8 nM.

For the compound `CC(=O)N1CCC(Cn2c(C(C)(C)C)nc3cc(S(=O)(=O)C(C)(C)c4ccccc4)ccc32)CC1` [compound 55], in series [1], the EC50 is 93.3 nM. As for `CC(=O)N1CCC(Cn2c(C(C)(C)C)nc3cc(Sc4c(Cl)cccc4Cl)ccc32)CC1` [compound 57], the EC50 in series [1] is 1.58 nM.

`CC(=O)N1CCC(Cn2c(C(C)(C)C)nc3cc(S(=O)(=O)c4c(Cl)cccc4Cl)ccc32)CC1` [compound 60] displayed a melting point of 224 °C. The concentration giving a half-maximal response (EC50) in series [1] is 3.47 nM.

Compound `CC(=O)N1CCC(Cn2c(C(C)(C)C)nc3cc(S(=O)(=O)c4ccccc4Cl)ccc32)CC1` [compound 71] showed a melting point of 218 °C. Also, the half-maximal effective concentration (EC50) in series [1] was 7.41 nM.

Turning to `CC(=O)N1CCC(Cn2c(C(C)(C)C)nc3cc(SCc4ccccc4)ccc32)CC1` [compound 72], the EC50 in series [1] was 12.9 nM. The same measure, in the same setting: then `CC(=O)N1CCC(Cn2c(C(C)(C)C)nc3cc(S(=O)(=O)c4cccc(C#N)c4C)ccc32)CC1` [compound 112], with about 16.6 nM; and `CC(=O)N1CCC(Cn2c(C(C)(C)C)nc3cc(S(=O)(=O)Cc4ccccc4)ccc32)CC1` [Co. No. 73], with 2.34 nM; and `CC(=O)N1CCC(Cn2c(C(C)(C)C)nc3cc(S(=O)(=O)c4ccc[n+]([O-])c4)ccc32)CC1` [compound 63], with 15.5 nM. On the same count and under the same terms, then `CC(=O)N1CCC(Cn2c(C(C)(C)C)nc3cc(SCCC#N)ccc32)CC1` [compound 15], with 10 nM. Compound `COCCS(=O)(=O)c1ccc2c(c1)nc(C(C)(C)C)n2CC1CCN(C=O)CC1` [compound 27] came in with a melting point of over 100 °C. The EC50 in series [1] is 61.7 nM. In turn, `CC(=O)N1CCC(Cn2c(C(C)(C)C)nc3cc(S(=O)(=O)c4cccc(C(F)(F)F)c4)ccc32)CC1` [compound 92] gave an EC50 in series [1] of 4.07 nM. Turning to `CC(=O)N1CCC(Cn2c(C(C)(C)C)nc3cc(S(=O)(=O)c4ccncc4)ccc32)CC1` [compound 34], the melting point was found to be 179 °C. The compound also had an EC50 in series [1] of 3.89 nM. `CC(=O)N1CCC(Cn2c(C(C)(C)C)nc3cc(S(=O)(=O)c4cccc(C#N)c4)ccc32)CC1` [compound 84] registered a melting point of 191 °C. In addition, in series [1], the midpoint of the response, the EC50, lay at 3.31 nM. `CCS(=O)(=O)c1ccc2c(c1)nc(C(C)C)n2CC1CCN(C(C)=O)CC1` [compound 47] showed an EC50 in series [1] of 955 nM. With `CC(=O)N1CCC(Cn2c(C(C)(C)C)nc3cc(S(=O)(=O)c4ccc(F)c(C#N)c4)ccc32)CC1` [compound 105], the concentration for a half-maximal effect (EC50) in series [1] is about 1.29 nM.

Compound `CC(=O)N1CCC(Cn2c(C(C)(C)C)nc3cc(Sc4ccc(C#N)cc4)ccc32)CC1` [compound 18] had a concentration giving a half-maximal response (EC50) in series [1] of 6.31 nM.
